# Where a name gives a salt, the structure may show the parent alone.
# Test system: MDA-MB-231 cells
# Test: Extracellular lactate production inhibition after 4 h, MDA-MB-231
# [1] = Table 3, group class A-D, the table does not say which assay or cell line ("the assays described above")
Compound,"IC50 (Homo sapiens, MDA-MB-231) [nM]",IC50 [1] [nM]
"Cc1cnc2c(S(=O)(=O)Nc3ccccc3C#Cc3ccc(C(=O)O)nc3)cccc2c1 [Compound 262, 5-[2-(3-Methyl-quinoline-8-sulfonyl-amino)-phenylethynyl]-pyridine-2-carboxylic acid]",100 to 1000,–
"Cc1cncc2c(S(=O)(=O)Nc3ccccc3C#Cc3ccc(C(=O)O)cc3)cccc12 [Compound 54, 4-{2-[2-(4-methylisoquinoline-8-sulfonamido)phenyl]ethynyl}benzoic acid]",1000 to 100000,–
"COc1cnc2cc(S(=O)(=O)Nc3ccccc3C#Cc3ccc(C(=O)O)nc3)ccc2n1 [Compound 91, 5-{2-[2-(2-methoxyquinoxaline-6-sulfonamido)phenyl]ethynyl}pyridine-2-carboxylic acid]",1000 to 100000,–
"Cc1ccc2cccnc2c1S(=O)(=O)Nc1ccc(N)cc1C#Cc1ccc(C(=O)O)nc1 [Compound 231, 5-{2-[5-amino-2-(7-methylquinoline-8-sulfonamido)phenyl]ethynyl}pyridine-2-carboxylic acid]",1000 to 100000,–
"O=C(O)c1ccc(C#Cc2ccccc2NS(=O)(=O)c2cccc3ncc(Cl)cc23)cc1 [Compound 272, 4-[2-(3-Chloro-quinoline-5-sulfonyl-amino)-phenylethynyl]-benzoic acid]",1000 to 100000,–
"COc1ccc(S(=O)(=O)Nc2ccc(F)cc2C#Cc2ccc(C(=O)NS(C)(=O)=O)nc2)c2ccccc12 [Compound 255, 4-Methoxy-naphthalene-1-sulfonic acid [4-fluoro-2-(6-methanesulfonyl-aminocarbonyl-pyridin-3-ylethynyl)-phenyl]-amide]",–,1000 to 100000
"CS(=O)(=Nc1ccccc1C#Cc1ccc(C(=O)O)nc1)c1ccccc1 (stereo not drawn) [Compound 424, 5-[2-(2-{[methyl(oxo)phenyl-λ6-sulfanylidene]amino}phenyl)ethynyl] pyridine-2-carboxylic acid]",1000 to 100000,–
"CCOc1cc(C#Cc2ccccc2NS(=O)(=O)c2ccc3ccccc3c2)ccc1C(=O)O [Compound 57, 2-ethoxy-4-{2-[2-(naphthalene-2-sulfonamido)phenyl]ethynyl}benzoic acid]",1000 to 100000,–
"Cc1ccccc1-c1ccc(S(=O)(=O)Nc2ccccc2C#Cc2ccc(C(=O)O)nc2)cc1 [Compound 293, 5-[2-(2-{2′-methyl-[1,1′-biphenyl]-4-sulfonamido}phenyl)ethynyl]pyridine-2-carboxylic acid]",100 to 1000,–
"COc1cc(C#Cc2ccccc2NS(=O)(=O)c2cccc3ccccc23)cnc1C(=O)O [Compound 71, 3-methoxy-5-{2-[2-(naphthalene-1-sulfonamido)phenyl]ethynyl}pyridine-2-carboxylic acid]",1000 to 100000,–
"COc1ccc(S(=O)(=O)Nc2ccccc2C#Cc2ccc(C(=O)NC#N)cc2)c2ccccc12 [Compound 253, N-cyano-4-{2-[2-(4-methoxy-naphthalene-1-sulfonamido)phenyl]-ethynyl}benzamide]",1000 to 100000,–
"COc1ccc(S(=O)(=O)Nc2ccccc2C#Cc2ccc(C(=O)O)cc2)c2ccccc12 [Compound 8, 4-{2-[2-(4-methoxynaphthalene-1-sulfonamido)phenyl]ethynyl}benzoic acid]",100 to 1000,–
"O=C(O)c1ccc(C#Cc2ccccc2NS(=O)(=O)c2ccc3ccccc3c2)c(F)c1 [Compound 30, 3-fluoro-4-{2-[2-(naphthalene-2-sulfonamido)phenyl]ethynyl}benzoic acid]",100 to 1000,–
"O=C(O)c1ccc(C#Cc2ccccc2NS(=O)(=O)/C=C/c2ccccc2)cc1 [Compound 334, 4-(2-{2-[(E)-2-phenylethenesulfonamido]-phenyl}ethynyl)benzoic acid]",100 to 1000,–
"O=CN(Cc1ccc2ncccc2c1)c1ccccc1C#Cc1ccc(C(=O)O)nc1 [Compound 205, trifluoroacetate]",–,1000 to 100000
"CS(=O)(=Nc1ccccc1C#Cc1ccc(C(=O)O)nc1)c1cccc(F)c1 (stereo not drawn) [Compound 436, 5-[2-(2-{[(3-fluorophenyl)(methyl)oxo-λ6-sulfanylidene]amino}phenyl)ethynyl] pyridine-2-carboxylic acid]",1000 to 100000,–
"COc1ccc(S(=O)(=O)Nc2cc(Br)ccc2C#Cc2ccc(C(=O)O)nc2)c2ncccc12 [Compound 182, 5-{2-[4-bromo-2-(5-methoxyquinoline-8-sulfonamido)phenyl]ethynyl}pyridine-2-carboxylic acid]",100 to 1000,–
"CNc1cc(C#Cc2ccccc2NS(=O)(=O)c2ccc(OC)c3cccnc23)ccc1C(=O)O [Compound 232, 4-{2-[2-(5-methoxyquinoline-8-sulfonamido)phenyl]ethynyl}-2-(methylamino)benzoic acid]",100 to 1000,–
"COc1ccc(S(=O)(=O)Nc2ccccc2C#Cc2ccc(C(=O)O)cc2)c2c1CCCC2 [Compound 11, 4-{2-[2-(4-methoxy-5,6,7,8-tetrahydronaphthalene-1-sulfonamido)phenyl]ethynyl}benzoic acid]",100 to 1000,–
"O=C(O)c1ccc(C#Cc2ccccc2NS(=O)(=O)c2ccc3oc4ccccc4c3c2)cn1 [Compound 286, 5-[2-(2-{8-oxatricyclo[7.4.0.0^2,7]trideca-1(9),2(7),3,5,10,12-hexaene-4-sulfonamido}phenyl)ethynyl]pyridine-2-carboxylic acid]",100 to 1000,–
"Cc1ccc2cccnc2c1S(=O)(=O)Nc1ccccc1C#Cc1ccc(C(=O)N2CCCCC2)nc1 [Compound 385, 7-Methyl-quinoline-8-sulfonic acid {2-[6-(piperidine-1-carbonyl)-pyridin-3-ylethynyl]-phenyl}-amide]",1000 to 100000,–

# More lines, main results first:
"IC50 (Homo sapiens, MDA-MB-231) [nM]",Compound,IC50 [1] [nM]
100 to 1000,"Cc1cc(C(=O)O)ncc1C#Cc1ccccc1NS(=O)(=O)c1cccc2ccccc12 [Compound 88, 4-methyl-5-{2-[2-(naphthalene-1-sulfonamido)phenyl]ethynyl}pyridine-2-carboxylic acid]",–
100 to 1000,"COc1ccnc2c(S(=O)(=O)Nc3ccccc3C#Cc3ccc(C(=O)O)nc3)cccc12 [Compound 324, 5-{2-[2-(4-methoxyquinoline-8-sulfonamido)phenyl]ethynyl}pyridine-2-carboxylic acid]",–
100 to 1000,"CCOc1cc(C#Cc2ccccc2NS(=O)(=O)c2ccc(OC)c3ccccc23)ccc1C(=O)O [Compound 58, 2-ethoxy-4-{2-[2-(4-methoxynaphthalene-1-sulfonamido)phenyl]ethynyl}benzoic acid]",–
100 to 1000,"COc1ccc(S(=O)(=O)Nc2ccccc2C#Cc2cnc(C(=O)O)c3ccccc23)c(C)c1C [Compound 395, 4-[2-(4-Methoxy-2,3-dimethyl-benzenesulfonylamino)-phenylethynyl]-isoquinoline-1-carboxylic acid]",–
10 to 100,"COc1cc(C(=O)O)ncc1C#Cc1ccccc1NS(=O)(=O)c1ccc(OC)c2cccnc12 [Compound 169, 4-methoxy-5-{2-[2-(5-methoxyquinoline-8-sulfonamido)phenyl]ethynyl}pyridine-2-carboxylic acid]",–
10 to 100,"COc1cc(-c2ccccc2)ccc1CN(C=O)c1ccccc1C#Cc1ccc(C(=O)O)nc1 [Compound 213, 5-(2-{2-[N-({3-methoxy-[1,1′-biphenyl]-4-yl}methyl)formamido]phenyl}-ethynyl)pyridine-2-carboxylic acid]",–
10 to 100,"Cc1ccc2cccnc2c1S(=O)(=O)Nc1ccccc1C#Cc1cnc2c(c1)COC2=O [Compound 401, 7-methyl-N-[2-(2-{7-oxo-5H,7H-furo[3,4-b]pyridin-3-yl}ethynyl)phenyl]quinoline-8-sulfonamide]",–
100 to 1000,"COc1ccc(S(=O)(=O)Nc2ccc(Cl)cc2C#Cc2ccc(C(=O)O)nc2)cc1 [Compound 390, 5-[5-Chloro-2-(4-methoxy-benzenesulfonylamino)-phenylethynyl]-pyridine-2-carboxylic acid]",–
10 to 100,"O=C(O)c1ccc(C#Cc2ccccc2NS(=O)(=O)c2cccc3c(Cl)ccnc23)cn1 [Compound 266, 5-[2-(4-Chloro-quinoline-8-sulfonylamino)-phenylethynyl]-pyridine-2-carboxylic acid]",–
1 to 10,"Cc1ccc2cccnc2c1S(=O)(=O)Nc1cc(F)c(Br)cc1C#Cc1ccc(C(=O)O)nc1 [Compound 341, 5-{2-[5-bromo-4-fluoro-2-(7-methylquinoline-8-sulfonamido)phenyl]-ethynyl}pyridine-2-carboxylic acid]",–
1 to 10,"COc1cc(C(=O)O)ncc1C#Cc1cc(Br)ccc1NS(=O)(=O)c1ccc(OC)c2cccnc12 [Compound 356, 5-{2-[5-bromo-2-(5-methoxyquinoline-8-sulfonamido)phenyl]ethynyl}-4-methoxypyridine-2-carboxylic acid]",–
10 to 100,C=C(C)c1cc(C(=O)O)ncc1C#Cc1ccccc1NS(=O)(=O)c1ccc(OC)c2cccnc12 [Compound 207],–
10 to 100,"Cc1ccc2cccnc2c1S(=O)(=O)Nc1ccc(F)cc1C#Cc1ccc(C(=O)O)nc1 [Compound 112, 5-{2-[5-fluoro-2-(7-methylquinoline-8-sulfonamido)phenyl]ethynyl}pyridine-2-carboxylic acid]",–
100 to 1000,"COc1ccc(C#Cc2ccc(C(=O)O)nc2)c(NS(=O)(=O)c2c(C)ccc3cccnc23)c1 [Compound 218, 5-{2-[4-methoxy-2-(7-methylquinoline-8-sulfonamido)phenyl]ethynyl}pyridine-2-carboxylic acid]",–
10 to 100,"CCOc1ccc2cccnc2c1S(=O)(=O)Nc1ccccc1C#Cc1ccc(C(=O)O)nc1 [Compound 210, 5-{2-[2-(7-ethoxyquinoline-8-sulfonamido)phenyl]ethynyl}pyridine-2-carboxylic acid]",–
100 to 1000,"CC(=O)N(Cc1ccc2ccccc2c1)c1ccccc1C#Cc1ccc(C(=O)O)nc1 [Compound 116, 5-[2-(2-{N-[(naphthalen-2-yl)methyl]acetamido}phenyl)ethynyl]-pyridine-2-carboxylic acid]",–
10 to 100,"COc1ccc(S(=O)(=O)Nc2ccc(Cl)cc2C#Cc2cnc(C(=O)O)c3ccccc23)c2ncccc12 [Compound 236, 4-{2-[5-chloro-2-(5-methoxyquinoline-8-sulfonamido)phenyl]ethynyl}isoquinoline-1-carboxylic acid]",–
100 to 1000,"COc1ccc(S(=O)(=O)Nc2c(C)cc(Cl)cc2C#Cc2ccc(C(=O)O)nc2)c2ncccc12 [Compound 346, 5-{2-[5-chloro-2-(5-methoxyquinoline-8-sulfonamido)-3-methylphenyl]-ethynyl}pyridine-2-carboxylic acid]",–
